The values that follow come from patent publication US20020028469A1, “Method of defining genus of chemical compound and method of designing molecules” (priority 1997, published 2002).

For orientation: IC50 means the point on the concentration scale where inhibition reaches its midpoint. A high value points to a need for much substance.

The subject of one series is PDEIV. The series is described as follows: PDEIV inhibition (IC50). Format: biochemical. Particulars: PDEIV inhibitory activity.
Series [1] can be described thus: Solubility in aqueous solution, noted during coupling. Format: physicochemical. Particulars: methanol used as solvent instead. Here is the method: 1: 6 mg Compound C was dissolved in 2 ml methanol in 50 ml centrifuge tube (methanol was used because Compound C is insoluble in aqueous solution).

In turn, `CCNc1ncn(Cc2ccc(OC)c(OC3CCCC3)c2)c2nc(C(C)C)nc1-2` [Compound A, 3-(3-cyclopentyloxy-4-methoxybenzyl)-6-ethylamino-8-isopropyl-purine] gave an IC50 in the series on PDEIV of 410 nM. With `COc1ccc(Cn2cncc3nc(C(C)C)nc2-3)cc1OC1CCCC1` [Compound C, 3-(3-cyclopentyloxy-4-methoxybenzyl)-8-isopropyl-3H-purine], half-maximal inhibition in the series on PDEIV (IC50) required 800 nM. Moreover, the “solubility in aqueous solution” value in series [1] was “insoluble”.

For `COc1ccc(C2CNC(=O)C2)cc1OC1CCCC1` (stereo not shown) [rolipram, reference compound], in the series on PDEIV, the IC50 was found to be 3000 nM.
